Reference: US9352015B2, “Antimicrobial peptides” (priority 2009, dated 2016)
≈ marks a conversion by molar mass, not a printed value. Entries after “also recorded” stand apart in the source; their conditions may differ. Read-outs that look alike come from different tables or passages of the source. Where a SMILES comes first, the peptide text is derived from it.

Assays:
[1] = Circular dichroism spectroscopy (helical structure); assay type: physicochemical
Gram-negative bacteria = test: MIC against Gram-negative bacteria (V681 analog studies); assay type: cell-based
Experimental: Minimal inhibitory concentrations (MICs) are determined using a standard microtiter dilution method, with 3 sets of determinations, in LB (Luria-Bertani) no-salt medium (10 g of tryptone and 5 g of yeast extract per liter). In some cases, Mueller Hinton (MH) medium or Brain Heart Infusion (BHI) medium is used.
Briefly, cells were grown overnight at 37° C. in LB and diluted in the same medium. Serial dilutions of the peptides are added to the microtiter plates in a volume of 100 μl followed by 10 μl of bacteria to give a final inoculum of 5×10^5 colony-forming units/ml. Plates are incubated at 37° C. for 24 hours and MICs determined as the lowest peptide concentration that inhibited growth. Alternatively, minimal inhibitory concentrations are determined using a standard microtiter dilution method in a Mueller-Hinton (MH) medium. Briefly, cells are grown overnight at 37° C. in MH broth and diluted in the same medium. In some cases, serial dilutions of the peptides are added to the microtiter plates in a volume of 100 μl followed by 10 μl of bacteria to give a final inoculum of 1×10^5 colony-forming units/ml. Plates are incubated at 37° C. for 24 hours and MICs are determined as the lowest peptide concentration that inhibited growth.

human erythrocytes [2] = test: Hemolytic activity against human erythrocytes (HC50 / MHC, microtiter dilution); assay type: cell-based; details: V681 analog studies
[3] = RP-HPLC retention as measure of overall peptide hydrophobicity; assay type: physicochemical; details: 80° C., non-polar face substitution
Experimental: Crude and purified peptides were analyzed on an Agilent 1100 series liquid chromatograph (Little Falls, Del.). Runs were performed on a Zorbax 300 SB-C8 column (150×2.1 mm I.D.; 5 μm particle size, 300 Å pore size) from Agilent Technologies using linear AB gradient (1% acetonitrile/min) and a flow rate of 0.25 ml/min, where eluant A was 0.2% aqueous TFA, pH 2 and eluant B was 0.2% TFA in acetonitrile.

[4] = RP-HPLC temperature profiling (peptide self-association parameter PA); assay type: physicochemical; details: enantiomer pairs of V681 analogs, 5° C. to 80° C., relative to peptide C
Outline: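 Peptide retention was profiled by RP-HPLC at pH 2 from 5 °C to 80 °C in 3 °C increments, using a linear gradient of 0.5% acetonitrile/min. The monomeric random-coil control peptide C profile was subtracted. PA is the maximum change in retention time relative to control C; higher PA means greater self-association.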

human erythrocytes [5] = test: Hemolytic activity against human erythrocytes (HC50 / MHC, microtiter dilution); assay type: cell-based
Experimental: (§1) Hemoglobin release was determined spectrophotometrically at 570 nm. The hemolytic activity was determined as the peptide concentration that caused 50% hemolysis of erythrocytes after 18 h (HC50). […] HC50 was determined by a plot of peptide concentration versus percent lysis.

Acinetobacter baumannii = assay type: cell-based; details: for Acinetobacter baumannii MICGM: geometric mean, 11 different isolates, 24 hours at 37° C.
Outline: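 Microtiter broth dilution in triplicate, mainly LB no-salt medium (MH or BHI in some cases), peptides serially diluted, final inoculum 5×10^5 CFU/ml (1×10^5 CFU/ml in MH variant); 24 h at 37° C. MIC is the lowest peptide concentration inhibiting growth, given in micromolar against clinical isolates.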

[6] = test system: Methicillin Resistant Staphylococcus aureus (MRSA) and Staphylococcus aureus; assay type: cell-based
Outline: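 MICs by microtiter broth dilution in triplicate determinations, mostly LB no-salt medium (sometimes MH or BHI), final inoculum 5×10^5 CFU/ml (1×10^5 CFU/ml in the MH variant), 24 h at 37 °C. MIC is the lowest peptide concentration inhibiting growth; tested on 20 clinical MRSA and S. aureus isolates.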

[7] = Hemolytic activity against human erythrocytes (HC50 / MHC, microtiter dilution); assay type: cell-based; details: 1% human erythrocytes, pH 7.4
Experimental: as §1

Pseudomonas aeruginosa = details: geometric mean, 6 different isolates, 24 hours at 37° C.

Row | Compound | Antimicrobial Activity MIC against A. baumannii (Acinetobacter baumannii) [µM] | MIC GM (geometric mean) (Acinetobacter baumannii) [µM] | Acinetobacter baumannii MICGM (Acinetobacter baumannii) [µM] | MIC GM (geometric mean) [6] [µM] | HC50 at 18 h ([7]; human) [µM] | Pseudomonas aeruginosa MICGM (Pseudomonas aeruginosa) [µM] | Hemolytic activity HC50 (human erythrocytes [5]) [µM] | further results
1 | PLL: V681 with L-Leu at position 11 (polar face), SEQ ID NO:13 (KWKSFLKTFKLAVKTVLHTALKAISS) | – | – | – | – | – | – | – | [θ]222 molar ellipticity ([1]; benign conditions (100 mM KCl, 50 mM aq. PO4, pH 7)): −10,850
2 | CC[C@H](C)[C@H](NC(=O)[C@H](C)NC(=O)[C@H](CCCCN)NC(=O)[C@H](CC(C)C)NC(=O)[C@H](C)NC(=O)[C@@H](NC(=O)[C@H](Cc1cnc[nH]1)NC(=O)[C@H](CC(C)C)NC(=O)[C@@H](NC(=O)[C@@H](NC(=O)[C@H](CCCCN)NC(=O)[C@H](CCCCN)NC(=O)[C@H](C)NC(=O)[C@H](CO)NC(=O)[C@H](CCCCN)NC(=O)[C@H](Cc1ccccc1)NC(=O)[C@@H](NC(=O)[C@H](CCCCN)NC(=O)[C@H](CC(C)C)NC(=O)[C@H](Cc1ccccc1)NC(=O)[C@H](CO)NC(=O)[C@H](CCCCN)NC(=O)[C@H](Cc1c[nH]c2ccccc12)NC(=O)[C@H](CCCCN)NC(C)=O)[C@@H](C)O)[C@@H](C)O)C(C)C)[C@@H](C)O)C(=O)N[C@@H](CO)C(=O)N[C@@H](CO)C(N)=O [NKL] | – | – | – | – | – | – | – | MIC against Gram-negative bacteria (Gram-negative bacteria): 3.1 mg/L (≈ 1.04 µM); Hemolytic activity, minimal hemolytic concentration (MHC) (human erythrocytes [2]): undetectable level; also recorded: non-hemolytic; also recorded: no detectable hemolytic activity; also recorded: no measurable activity; Change in hydrophobicity (retention time) relative to NVL (V681) [3]: -12.61 min; PA (peptide self-association parameter) [4]: 2.1; Fold decrease in hemolytic activity compared to V681 (human erythrocytes [5]): > 32 fold
3 | CC(=O)N[C@H](CCCCN)C(=O)N[C@H](CC(C)C)C(=O)N[C@H](CCCCN)C(=O)N[C@H](CO)C(=O)N[C@H](CC(C)C)C(=O)N[C@H](CC(C)C)C(=O)N[C@H](CCCCN)C(=O)N[C@@H](C(=O)N[C@H](CC(C)C)C(=O)N[C@H](CO)C(=O)N[C@H](CCCCN)C(=O)N[C@H](C)C(=O)N[C@H](CCCCN)C(=O)N[C@H](CCCCN)C(=O)N[C@H](CCCCN)C(=O)N[C@H](CCCCN)C(=O)N[C@H](CC(C)C)C(=O)N[C@H](CCCCN)C(=O)N[C@@H](C(=O)N[C@H](CC(C)C)C(=O)N[C@H](CC(C)C)C(=O)N[C@H](CCCCN)C(=O)N[C@H](C)C(=O)N[C@H](CC(C)C)C(=O)N[C@H](CO)C(=O)N[C@H](CCCCN)C(N)=O)[C@H](C)O)[C@H](C)O [Peptide D16, Ac-KLKSLLKTLSKAKKKKLKTLLKALSK-amide] | 0.4 | 0.4 (≈ 1.19 µg/mL) | 0.4 | 48.3 (≈ 144 µg/mL) | 1340 | 1.5 | – | Fold more active than D1 against A. baumannii (Acinetobacter baumannii): ~3 fold; Fold less hemolytic than D1 (human erythrocytes [5]): 9.5
4 | Ac-ELEKGGLEGEKGGKELEK-amide (Ac-ELEKGGLEGEKGGKELEK-NH2) [peptide C] | – | – | – | – | – | – | – | [θ]222 molar ellipticity ([1]; 50% TFE, 5° C.): −3,950
5 | CC[C@@H](C)[C@@H](NC(=O)[C@@H](C)NC(=O)[C@@H](CCCCN)NC(=O)[C@@H](CC(C)C)NC(=O)[C@@H](C)NC(=O)[C@H](NC(=O)[C@@H](CCCCN)NC(=O)[C@@H](CC(C)C)NC(=O)[C@H](NC(=O)[C@@H](CCCCN)NC(=O)[C@@H](CCCCN)NC(=O)[C@@H](CCCCN)NC(=O)[C@@H](C)NC(=O)[C@@H](CCCCN)NC(=O)[C@@H](CO)NC(=O)[C@@H](Cc1ccccc1)NC(=O)[C@H](NC(=O)[C@@H](CCCCN)NC(=O)[C@@H](CC(C)C)NC(=O)[C@@H](Cc1ccccc1)NC(=O)[C@@H](CO)NC(=O)[C@@H](CCCCN)NC(=O)[C@@H](Cc1c[nH]c2ccccc12)NC(=O)[C@@H](CCCCN)NC(C)=O)[C@H](C)O)C(C)C)[C@H](C)O)C(=O)N[C@H](CO)C(=O)N[C@H](CCCCN)C(N)=O [Peptide D11, Ac-KWKSFLKTFSKAKKKVLKTALKAISK-amide] | 0.6 | 0.6 (≈ 1.83 µg/mL) | 0.6 | 14.0 (≈ 42.7 µg/mL) | 254 | 1.6 | 254.1 | –
6 | CC[C@@H](C)[C@@H](NC(=O)[C@@H](C)NC(=O)[C@@H](CCCCN)NC(=O)[C@@H](CC(C)C)NC(=O)[C@@H](CC(C)C)NC(=O)[C@H](NC(=O)[C@@H](CCCCN)NC(=O)[C@@H](CC(C)C)NC(=O)[C@@H](CCCCN)NC(=O)[C@@H](CCCCN)NC(=O)[C@@H](CCCCN)NC(=O)[C@@H](CCCCN)NC(=O)[C@@H](C)NC(=O)[C@@H](CCCCN)NC(=O)[C@@H](CO)NC(=O)[C@@H](Cc1ccccc1)NC(=O)[C@H](NC(=O)[C@@H](CCCCN)NC(=O)[C@@H](CC(C)C)NC(=O)[C@@H](Cc1ccccc1)NC(=O)[C@@H](CO)NC(=O)[C@@H](CCCCN)NC(=O)[C@@H](Cc1c[nH]c2ccccc12)NC(=O)[C@@H](CCCCN)NC(C)=O)[C@H](C)O)[C@H](C)O)C(=O)N[C@H](CO)C(=O)N[C@H](CCCCN)C(N)=O [Peptide D14, Ac-KWKSFLKTFSKAKKKKLKTLLKAISK-amide] | 0.8 | 0.8 (≈ 2.5 µg/mL) | 0.8 | 40.1 (≈ 125 µg/mL) | 352 | 2.5 | 351.5 | –
7 | CC[C@H](C)[C@H](NC(=O)[C@H](C)NC(=O)[C@H](CCCCN)NC(=O)[C@H](CC(C)C)NC(=O)[C@H](C)NC(=O)[C@@H](NC(=O)[C@H](Cc1c[nH]cn1)NC(=O)[C@H](CC(C)C)NC(=O)[C@@H](NC(=O)[C@@H](NC(=O)[C@H](CCCCN)NC(=O)[C@H](CC(C)C)NC(=O)[C@H](C)NC(=O)[C@H](CO)NC(=O)[C@H](CCCCN)NC(=O)[C@H](Cc1ccccc1)NC(=O)[C@@H](NC(=O)[C@H](CCCCN)NC(=O)[C@H](CC(C)C)NC(=O)[C@H](Cc1ccccc1)NC(=O)[C@H](CO)NC(=O)[C@H](CCCCN)NC(=O)[C@H](Cc1c[nH]c2ccccc12)NC(=O)[C@H](CCCCN)NC(C)=O)[C@@H](C)O)[C@@H](C)O)C(C)C)[C@@H](C)O)C(=O)N[C@@H](CO)C(=O)N[C@@H](CO)C(N)=O [NLL] (Ac-KWKSFLKTFKSALKTVLHTALKAISS-NH2) | – | – | – | – | – | – | – | MIC against Gram-negative bacteria (Gram-negative bacteria): 12.7 mg/L (≈ 4.27 µM)
8 | CC(=O)N[C@H](CCCCN)C(=O)N[C@H](CC(C)C)C(=O)N[C@H](CCCCN)C(=O)N[C@H](CO)C(=O)N[C@H](CC(C)C)C(=O)N[C@H](CC(C)C)C(=O)N[C@H](CCCCN)C(=O)N[C@@H](C(=O)N[C@H](CC(C)C)C(=O)N[C@H](CO)C(=O)N[C@H](CCCCN)C(=O)N[C@H](C)C(=O)N[C@H](CCCCN)C(=O)N[C@H](CCCCN)C(=O)N[C@H](CCCCN)C(=O)N[C@H](CC(C)C)C(=O)N[C@H](CC(C)C)C(=O)N[C@H](CCCCN)C(=O)N[C@@H](C(=O)N[C@H](C)C(=O)N[C@H](CC(C)C)C(=O)N[C@H](CCCCN)C(=O)N[C@H](C)C(=O)N[C@H](CC(C)C)C(=O)N[C@H](CO)C(=O)N[C@H](CCCCN)C(N)=O)[C@H](C)O)[C@H](C)O [Peptide D15, Ac-KLKSLLKTLSKAKKKLLKTALKALSK-amide] | 0.5 | 0.5 (≈ 1.46 µg/mL) | 0.5 | 8.1 (≈ 23.7 µg/mL) | – | 1 | 169.6 | Hemolytic activity HC50 (human erythrocytes [5]; 50% hemolysis after 18 hours at 37° C.): 170 µM; HC50 at 18 h ([7]; human erythrocytes, concentration of peptide that results in 50% hemolysis after 18 hours at 37° C., read-out: Hemolytic activity HC50): 170 µM
